#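 Method: 48-hour compound exposure of cells in 96-well plates, five concentrations, linear interpolation of endpoints. At the TGI there is no net growth.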
# How the values were obtained:
# Experiment in all cases: inhibition of tumour cell growth, NCI panel, 48 h
# HOP-62 NSCLC = system: HOP-62 NSCLC
# TK-10 renal = system: TK-10 renal
# K-562 leukemia = system: K-562 leukemia
# SK-OV-3 ovarian = system: SK-OV-3 ovarian
# SW-620 colon = system: SW-620 colon
# EKVX NSCLC = system: EKVX NSCLC
# NCI/ADR-RES ovarian = system: NCI/ADR-RES ovarian
# HT29 colon = system: HT29 colon
# U251 CNS = system: U251 CNS
# M14 melanoma = system: M14 melanoma
# NCI-H522 lung = system: NCI-H522 lung
# DU-145 prostate = system: DU-145 prostate
# PC-3 prostate = system: PC-3 prostate
# NCI-H226 lung = system: NCI-H226 lung
# HCT-15 colon = system: HCT-15 colon
# CAKI-1 renal = system: CAKI-1 renal
# SK-MEL-2 melanoma = system: SK-MEL-2 melanoma
# MOLT-4 leukemia = system: MOLT-4 leukemia
# KM12 colon = system: KM12 colon
# ACHN renal = system: ACHN renal
# LOX IMVI melanoma = system: LOX IMVI melanoma
# SNB-19 CNS = system: SNB-19 CNS
# MALME-3M melanoma = system: MALME-3M melanoma
# BT-549 breast = system: BT-549 breast
# 786-0 renal = system: 786-0 renal
# HS 578T breast = system: HS 578T breast
# SF-295 CNS = system: SF-295 CNS
# A549 NSCLC = system: A549 NSCLC
# UACC-257 melanoma = system: UACC-257 melanoma
# SN12C renal = system: SN12C renal
# HCT-116 colon = system: HCT-116 colon
# HCC-2998 colon = system: HCC-2998 colon
# NCI-H23 lung = system: NCI-H23 lung
# OVCAR-8 ovarian = system: OVCAR-8 ovarian
# MDA-MB-231 breast = system: MDA-MB-231 breast
# SR leukemia = system: SR leukemia
# IGROV1 ovarian = system: IGROV1 ovarian
# COLO 205 colon = system: COLO 205 colon
# HOP-92 NSCLC = system: HOP-92 NSCLC
# OVCAR-3 ovarian = system: OVCAR-3 ovarian
# SF-539 CNS = system: SF-539 CNS
# MDA-N = system: MDA-N
# OVCAR-5 ovarian = system: OVCAR-5 ovarian
# HL-60(TB) leukemia = system: HL-60(TB) leukemia
# SNB-75 CNS = system: SNB-75 CNS
# RPMI-8226 leukemia = system: RPMI-8226 leukemia
# MCF7 breast = system: MCF7 breast
# UACC-62 melanoma = system: UACC-62 melanoma
# CCRF-CEM leukemia = system: CCRF-CEM leukemia
# SF-268 CNS = system: SF-268 CNS
# NCI-H460 lung = system: NCI-H460 lung
# SK-MEL-28 melanoma = system: SK-MEL-28 melanoma
# MDA-MB-435 = system: MDA-MB-435
# OVCAR-4 ovarian = system: OVCAR-4 ovarian
# UO-31 renal = system: UO-31 renal
# SK-MEL-5 melanoma = system: SK-MEL-5 melanoma
# RXF 393 renal = system: RXF 393 renal
# T-47D breast = system: T-47D breast
# A498 renal = system: A498 renal
smiles,measurement,setting,value
O=C1/C(=C/c2cccc(Cl)c2)CCCc2ccccc21,TGI,HOP-62 NSCLC,49 µM
same,TGI,TK-10 renal,34.9 µM
same,TGI,K-562 leukemia,34 µM
same,TGI,SK-OV-3 ovarian,> 100 µM
same,TGI,SW-620 colon,33.9 µM
same,TGI,EKVX NSCLC,35.9 µM
same,TGI,NCI/ADR-RES ovarian,35.9 µM
same,TGI,HT29 colon,30.9 µM
same,TGI,U251 CNS,29.4 µM
same,TGI,M14 melanoma,29.9 µM
same,TGI,NCI-H522 lung,32.1 µM
same,TGI,DU-145 prostate,40.2 µM
same,TGI,PC-3 prostate,38.3 µM
same,TGI,NCI-H226 lung,30.7 µM
same,TGI,HCT-15 colon,39.2 µM
same,TGI,CAKI-1 renal,94.5 µM
same,TGI,SK-MEL-2 melanoma,31.2 µM
same,TGI,MOLT-4 leukemia,53.7 µM
same,TGI,KM12 colon,32.3 µM
same,TGI,ACHN renal,29.6 µM
same,TGI,LOX IMVI melanoma,32.8 µM
same,TGI,SNB-19 CNS,31.5 µM
same,TGI,MALME-3M melanoma,33.8 µM
same,TGI,BT-549 breast,44.5 µM
same,TGI,786-0 renal,33.7 µM
same,TGI,HS 578T breast,32.9 µM
same,TGI,SF-295 CNS,31.6 µM
same,TGI,A549 NSCLC,> 100 µM
same,TGI,UACC-257 melanoma,46.5 µM
same,TGI,SN12C renal,32.3 µM
same,TGI,HCT-116 colon,26.1 µM
same,TGI,HCC-2998 colon,32.5 µM
same,TGI,NCI-H23 lung,36 µM
same,TGI,OVCAR-8 ovarian,33.6 µM
same,TGI,MDA-MB-231 breast,38.2 µM
same,TGI,SR leukemia,35.2 µM
same,TGI,IGROV1 ovarian,31.8 µM
same,TGI,COLO 205 colon,38.5 µM
same,TGI,HOP-92 NSCLC,60.4 µM
same,TGI,OVCAR-3 ovarian,55.8 µM
same,TGI,SF-539 CNS,32.1 µM
same,TGI,MDA-N,31.9 µM
same,TGI,OVCAR-5 ovarian,31.2 µM
same,TGI,HL-60(TB) leukemia,30.7 µM
same,TGI,SNB-75 CNS,> 100 µM
same,TGI,RPMI-8226 leukemia,42.5 µM
same,TGI,MCF7 breast,27.4 µM
same,TGI,UACC-62 melanoma,27 µM
same,TGI,CCRF-CEM leukemia,30.4 µM
same,TGI,SF-268 CNS,33.4 µM
same,TGI,NCI-H460 lung,31.2 µM
same,TGI,SK-MEL-28 melanoma,33.6 µM
same,TGI,MDA-MB-435,31.6 µM
same,TGI,OVCAR-4 ovarian,31.4 µM
same,TGI,UO-31 renal,30.1 µM
CC(=O)NC1C(OC(C)C(=O)NC(C)C(=O)NC(CCC(=O)NCCCCCNc2ccc([N+](=O)[O-])c3[nH]c4ccccc4c(=O)c23)C(N)=O)C(O)C(CO)OC1(C)OCc1ccccc1 (centres undefined),TGI,HOP-62 NSCLC,> 100 µM
same,TGI,TK-10 renal,82.1 µM
same,TGI,K-562 leukemia,> 100 µM
same,TGI,SK-OV-3 ovarian,> 100 µM
same,TGI,SW-620 colon,> 100 µM
same,TGI,SK-MEL-5 melanoma,> 100 µM
same,TGI,EKVX NSCLC,> 100 µM
same,TGI,NCI/ADR-RES ovarian,> 100 µM
same,TGI,HT29 colon,> 100 µM
same,TGI,U251 CNS,> 100 µM
same,TGI,M14 melanoma,> 100 µM
same,TGI,NCI-H522 lung,> 100 µM
same,TGI,DU-145 prostate,> 100 µM
same,TGI,PC-3 prostate,> 100 µM
same,TGI,NCI-H226 lung,> 100 µM
same,TGI,HCT-15 colon,> 100 µM
same,TGI,CAKI-1 renal,> 100 µM
same,TGI,SK-MEL-2 melanoma,> 100 µM
same,TGI,MOLT-4 leukemia,> 100 µM
same,TGI,KM12 colon,> 100 µM
same,TGI,ACHN renal,> 100 µM
same,TGI,LOX IMVI melanoma,> 100 µM
same,TGI,SNB-19 CNS,> 100 µM
same,TGI,MALME-3M melanoma,> 100 µM
same,TGI,BT-549 breast,> 100 µM
same,TGI,786-0 renal,> 100 µM
same,TGI,HS 578T breast,> 100 µM
same,TGI,SF-295 CNS,> 100 µM
same,TGI,A549 NSCLC,> 100 µM
same,TGI,UACC-257 melanoma,> 100 µM
same,TGI,SN12C renal,> 100 µM
same,TGI,HCT-116 colon,> 100 µM
same,TGI,HCC-2998 colon,> 100 µM
same,TGI,NCI-H23 lung,> 100 µM
same,TGI,OVCAR-8 ovarian,> 100 µM
same,TGI,MDA-MB-231 breast,> 100 µM
same,TGI,SR leukemia,> 100 µM
same,TGI,IGROV1 ovarian,> 100 µM
same,TGI,COLO 205 colon,> 100 µM
same,TGI,OVCAR-3 ovarian,> 100 µM
same,TGI,SF-539 CNS,> 100 µM
same,TGI,MDA-N,> 100 µM
same,TGI,RXF 393 renal,> 100 µM
same,TGI,OVCAR-5 ovarian,> 100 µM
same,TGI,SNB-75 CNS,> 100 µM
same,TGI,RPMI-8226 leukemia,70.1 µM
same,TGI,MCF7 breast,> 100 µM
same,TGI,UACC-62 melanoma,> 100 µM
same,TGI,CCRF-CEM leukemia,> 100 µM
same,TGI,SF-268 CNS,> 100 µM
same,TGI,NCI-H460 lung,> 100 µM
same,TGI,T-47D breast,> 100 µM
same,TGI,MDA-MB-435,> 100 µM
same,TGI,A498 renal,> 100 µM
same,TGI,OVCAR-4 ovarian,> 100 µM
same,TGI,UO-31 renal,> 100 µM
NC1N=C(c2ccc(Cl)cc2)C2=C(N1)c1ccccc1CC2 (centres undefined),TGI,HOP-62 NSCLC,> 82.7 µM
same,TGI,TK-10 renal,> 100 µM
same,TGI,K-562 leukemia,> 26.1 µM
same,TGI,SK-OV-3 ovarian,> 100 µM
same,TGI,SW-620 colon,> 78.4 µM
same,TGI,SK-MEL-5 melanoma,> 56.3 µM
same,TGI,EKVX NSCLC,> 100 µM
same,TGI,NCI/ADR-RES ovarian,> 100 µM
same,TGI,HT29 colon,28.4 µM
same,TGI,U251 CNS,> 100 µM
same,TGI,M14 melanoma,> 59.3 µM
same,TGI,NCI-H522 lung,36.2 µM
same,TGI,DU-145 prostate,> 100 µM
same,TGI,PC-3 prostate,> 100 µM
same,TGI,NCI-H226 lung,54.3 µM
same,TGI,HCT-15 colon,> 100 µM
same,TGI,CAKI-1 renal,> 100 µM
same,TGI,SK-MEL-2 melanoma,46.6 µM
same,TGI,MOLT-4 leukemia,> 31.4 µM
same,TGI,KM12 colon,> 67 µM
same,TGI,ACHN renal,> 100 µM
same,TGI,LOX IMVI melanoma,> 50.9 µM
same,TGI,SNB-19 CNS,> 100 µM
same,TGI,MALME-3M melanoma,> 100 µM
same,TGI,BT-549 breast,> 100 µM
same,TGI,786-0 renal,> 73.1 µM
same,TGI,HS 578T breast,> 100 µM
same,TGI,SF-295 CNS,> 100 µM
same,TGI,A549 NSCLC,> 80.7 µM
same,TGI,UACC-257 melanoma,> 100 µM
same,TGI,SN12C renal,> 100 µM
same,TGI,HCT-116 colon,> 56.9 µM
same,TGI,HCC-2998 colon,18.5 µM
same,TGI,NCI-H23 lung,> 100 µM
same,TGI,OVCAR-8 ovarian,> 100 µM
same,TGI,MDA-MB-231 breast,> 100 µM
same,TGI,IGROV1 ovarian,> 57.1 µM
same,TGI,COLO 205 colon,> 100 µM
same,TGI,HOP-92 NSCLC,> 100 µM
same,TGI,OVCAR-3 ovarian,> 100 µM
same,TGI,SF-539 CNS,> 100 µM
same,TGI,MDA-N,> 100 µM
same,TGI,RXF 393 renal,50.1 µM
same,TGI,OVCAR-5 ovarian,> 100 µM
same,TGI,HL-60(TB) leukemia,10.6 µM
same,TGI,SNB-75 CNS,> 22.7 µM
same,TGI,RPMI-8226 leukemia,12.2 µM
same,TGI,MCF7 breast,> 46.8 µM
same,TGI,UACC-62 melanoma,> 100 µM
same,TGI,CCRF-CEM leukemia,> 100 µM
same,TGI,SF-268 CNS,> 100 µM
same,TGI,NCI-H460 lung,> 100 µM
same,TGI,T-47D breast,> 100 µM
same,TGI,SK-MEL-28 melanoma,> 100 µM
same,TGI,MDA-MB-435,> 22.6 µM
same,TGI,A498 renal,> 100 µM
same,TGI,OVCAR-4 ovarian,88.2 µM
same,TGI,UO-31 renal,> 88.7 µM

# Source: PubChem BioAssay (NCI)
